Test results reported in ChEMBL document CHEMBL4613295, “Pyrrolyl Pyrazoles as Non-Diketo Acid Inhibitors of the HIV-1 Ribonuclease H Function of Reverse Transcriptase” (ACS Med Chem Lett, 2020).
Values belong to the molecule of their own block, whether it stands above or below them. The source made the active and inactive calls. The calls are words filed in the database; no cut-off is given here.

Experiments:
[1] = molecular target: T1, Human immunodeficiency virus type 1 reverse transcriptase (Human immunodeficiency virus 1, UniProt Q72547); assay: Inhibition of RNase H activity of recombinant His-tagged HIV-1 group M subtype B reverse transcriptase p66/p51 expressed in Escherichia coli M15 using 18-nucleotide 3'-fluorescein-labeled RNA/5'-dabcyl-labeled DNA hybrid as substrate incubated for 1 hr; parameters: species or system HIV-1 M:B
[2] = Stability of compound in 90% human serum at 5 mM and 37 degree C measured after 3 hrs by ESI-RP-HPLC analysis; type: ADME, cell-free; conditions: 5000 µM
[3] = Drug metabolism in 90% human serum assessed as retro-Claisen adduct derived 1-(1-(4-fluorobenzyl)-4-phenyl-1H-pyrrol-3-yl)ethanone metabolite formation at 5 mM and 37 degree C measured after 3 hrs by ESI-RP-HPLC analysis; type: ADME, cell-free; conditions: 5000 µM
[4] = tested on: Human immunodeficiency virus type 1 reverse transcriptase (Human immunodeficiency virus 1), Q72547 [K540A]; assay: Inhibition of recombinat HIV-1 group M subtype B His-tagged reverse transcriptase p66 K540A mutant expressed in Escherichia coli M15; conditions: HIV-1 M:B
HIV-1 M:B [5] = assay: Selectivity index, ratio of IC50 for recombinat HIV-1 group M subtype B His-tagged reverse transcriptase p66 W535A mutant expressed in Escherichia coli M15 to IC50 for RNase H activity of recombinant His-tagged HIV-1 group M subtype B reverse transcriptase p66/p51 expressed in Escherichia coli M15 …
HIV-1 M:B [6] = assay: Selectivity index, ratio of IC50 for recombinat HIV-1 group M subtype B His-tagged reverse transcriptase p66 N474A mutant expressed in Escherichia coli M15 to IC50 for RNase H activity of recombinant His-tagged HIV-1 group M subtype B reverse transcriptase p66/p51 expressed in Escherichia coli M15 …
HIV-1 M:B [7] = assay: Selectivity index, ratio of IC50 for recombinat HIV-1 group M subtype B His-tagged reverse transcriptase p66 Y501A mutant expressed in Escherichia coli M15 to IC50 for RNase H activity of recombinant His-tagged HIV-1 group M subtype B reverse transcriptase p66/p51 expressed in Escherichia coli M15 …
HIV-1 M:B [8] = assay: Selectivity index, ratio of IC50 for recombinat HIV-1 group M subtype B His-tagged reverse transcriptase p66 Q475A mutant expressed in Escherichia coli M15 to IC50 for RNase H activity of recombinant His-tagged HIV-1 group M subtype B reverse transcriptase p66/p51 expressed in Escherichia coli M15 …
[9] = molecular target: T1, Human immunodeficiency virus type 1 reverse transcriptase; assay: Inhibition of RNase H activity of recombinant HIV-1 reverse transcriptase p66/p51 expressed in Escherichia coli M15 using 5'-[gamma32P]ATP-labeled-tC5U RNA oligonucleotide/p12 DNA oligonucleotide hybrid as substrate incubated for 30 mins
[10] = tested on: Human immunodeficiency virus type 1 reverse transcriptase (Human immunodeficiency virus 1), Q72547 [K451A]; assay: Inhibition of recombinat HIV-1 group M subtype B His-tagged reverse transcriptase p66 K451A mutant expressed in Escherichia coli M15; conditions: HIV-1 M:B
[11] = Cytotoxicity against human HeLa cells expressing CD4-LTR-beta-gal assessed as reduction in cell viability measured after 24 hrs by CellTiter96 AQueous one solution cell proliferation assay; type: cell-based
[12] = tested on: Human immunodeficiency virus 1; assay: Antiviral activity against HIV1 infected in human HeLa-CD4-LTR-betagal cells assessed as inhibition of viral replication measured after 24 hrs by fluorescence based analysis; type: functional, organism-based; conditions: Human immunodeficiency virus 1, 24 h
[13] = tested on: Human immunodeficiency virus 1; assay: Selectivity index, ratio of IC50 for wild type HIV1 subtype B NL4-3 6xHis-tagged integrase expressed in Escherichia coli BL21 (DE3) using DNA as substrate preincubated with enzyme for 1 hr followed by addition of recombinant 6xHis-tagged LEDGF/p75 expressed in Escherichia coli BL21 (DE3), DNA donor …
[14] = tested on: Human immunodeficiency virus type 1 reverse transcriptase (Human immunodeficiency virus 1), Q72547 [R448A]; assay: Inhibition of recombinat HIV-1 group M subtype B His-tagged reverse transcriptase p66 R448A mutant expressed in Escherichia coli M15; conditions: HIV-1 M:B
[15] = Selectivity index, ratio of CC50 for human HeLa cells expressing CD4-LTR-beta-gal assessed as reduction in cell viability measured after 24 hrs by CellTiter96 AQueous one solution cell proliferation assay to EC50 for HIV1 infected in human HeLa-CD4-LTR-betagal cells measured after 24 hrs by fluorescence based analysis; type: toxicity; conditions: read-out: Ratio CC50/EC50
[16] = molecular target: Human immunodeficiency virus type 1 integrase (Human immunodeficiency virus 1, UniProt Q7ZJM1); assay: Inhibition of wild type HIV1 subtype B NL4-3 6xHis-tagged integrase expressed in Escherichia coli BL21 (DE3) assessed as inhibition of 3'-processing and strand-transfer reactions using DNA as substrate preincubated with enzyme for 1 hr followed by addition of recombinant 6xHis-tagged LEDGF/p75 expressed in Escherichia coli BL21 (DE3), DNA donor substrate and DNA acceptor substrate and further …
Human immunodeficiency virus type 1 integrase, sequence (Q7ZJM1 whole entry): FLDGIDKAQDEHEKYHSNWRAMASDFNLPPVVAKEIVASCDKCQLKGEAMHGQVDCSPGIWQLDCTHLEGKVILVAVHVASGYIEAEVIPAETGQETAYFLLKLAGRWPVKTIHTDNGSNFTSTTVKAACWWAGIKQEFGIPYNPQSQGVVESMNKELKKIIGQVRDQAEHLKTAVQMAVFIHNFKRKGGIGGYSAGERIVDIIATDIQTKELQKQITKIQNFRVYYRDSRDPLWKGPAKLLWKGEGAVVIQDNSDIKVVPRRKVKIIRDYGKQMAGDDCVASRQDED

Compound: O=C(O)c1cc(-c2cc[nH]c2)n[nH]1
IC50 [1]: > 100 µM

Compound: O=C(O)c1cc(-c2cn(CCCCc3ccccc3)cc2-c2ccccc2)n[nH]1
IC50 [1]: 63 µM

Compound: Cc1cc(C(=O)O)n[nH]1
IC50 [1]: > 100 µM

Compound: CCOC(=O)c1cc(-c2ccccc2-c2ccccc2)n[nH]1
IC50 [1]: > 100 µM

Compound: CCOC(=O)c1cc(-c2cn(Cc3ccc(F)cc3)cc2-c2ccc(OCC(=O)Nc3ccccc3)cc2)n[nH]1
IC50 [1]: 6.8 µM

Compound: O=C(O)c1cc(-c2cn(Cc3ccc(F)cc3)cc2-c2ccc(OCc3cccc4ccccc34)cc2)n[nH]1
IC50 [1]: 4.5 µM

Compound: O=C(O)c1cc(-c2c[nH]cc2-c2ccccc2)n[nH]1
IC50 [1]: > 100 µM

Compound: CCOC(=O)c1cc(-c2cn(Cc3cccc4ccccc34)cc2-c2ccc(OCCCCc3ccccc3)cc2)n[nH]1
IC50 [1]: 8.5 µM

Compound: CCOC(=O)c1cc(-c2cn(Cc3ccc(F)cc3)cc2-c2ccc(OCC(=O)Nc3ccc(C(=O)O)cc3)cc2)n[nH]1
IC50 [1]: 8.1 µM

Stability [2]: Unstable
Drug metabolism [3]: Metabolite_Detected
Compound: O=C(O)/C(O)=C/C(=O)c1cn(Cc2ccc(F)cc2)cc1-c1ccccc1

Compound: CCOC(=O)c1cc(-c2c[nH]cc2-c2ccccc2)n[nH]1
IC50 [1]: > 100 µM

Compound: CCOC(=O)c1cc(-c2cn(Cc3ccc(F)cc3)cc2-c2ccc(OCCCCCc3ccccc3)cc2)n[nH]1
IC50 [1]: 25.8 µM

Compound: CCOC(=O)c1cc(-c2cn(CCCCc3ccccc3)cc2-c2ccccc2)n[nH]1
IC50 [1]: 97 µM

Compound: O=C(O)c1cc(-c2ccccc2-c2ccccc2)n[nH]1
IC50 [1]: > 100 µM

Compound: CCOC(=O)/C(O)=C/C(=O)/C=C/c1cccn1Cc1ccccc1Cl
inhibition [4]: Active
Ratio IC50 (HIV-1 M:B [5]): > 5
Ratio IC50 (HIV-1 M:B [6]): > 5
Ratio IC50 (HIV-1 M:B [7]): > 5
Ratio IC50 (HIV-1 M:B [8]): > 5
IC50 [9]: 7.3 µM

Compound: CCOC(=O)c1cc(-c2ccccc2)[nH]n1
IC50 [1]: > 100 µM

Compound: CCOC(=O)c1cc(-c2cn(Cc3ccc(F)cc3)cc2-c2ccc(OCCCCc3ccccc3)cc2)n[nH]1
inhibition [10]: inactive
inhibition [4]: inactive
Ratio IC50 (HIV-1 M:B [5]): > 5
CC50 at 24 h [11]: > 200 µM
EC50 [12]: 4 to 41 µM
Ratio IC50 [13]: > 5.6
Ratio IC50 (HIV-1 M:B [6]): > 5
Ratio IC50 (HIV-1 M:B [7]): > 5
IC50 [1]: 17.8 µM
inhibition [14]: inactive
Ratio IC50 (HIV-1 M:B [8]): > 5
selectivity ratio at 24 h [15]: > 10

Compound: O=C(COc1ccc(-c2cn(Cc3cccc4ccccc34)cc2-c2cc(C(=O)O)[nH]n2)cc1)Nc1ccccc1
IC50 [1]: 5.8 µM

Compound: CCOC(=O)c1cc(-c2cn(Cc3ccc(F)cc3)cc2-c2ccc3ccccc3c2)n[nH]1
inhibition [10]: inactive
inhibition [4]: inactive
Ratio IC50 (HIV-1 M:B [5]): > 5
CC50 at 24 h [11]: > 200 µM
EC50 [12]: 4 to 41 µM
Ratio IC50 [13]: > 10.6
Ratio IC50 (HIV-1 M:B [6]): > 5
Ratio IC50 (HIV-1 M:B [7]): > 5
IC50 [1]: 9.4 µM
inhibition [14]: inactive
Ratio IC50 (HIV-1 M:B [8]): > 5
selectivity ratio at 24 h [15]: > 10

Compound: O=C(O)c1cc(-c2cn(Cc3cccc4ccccc34)cc2-c2ccc(OCc3cccc4ccccc34)cc2)n[nH]1
IC50 [1]: 1.73 µM

Compound: O=C(O)c1cc(-c2cn(Cc3ccc(F)cc3)cc2-c2ccc(OCCCCc3ccccc3)cc2)n[nH]1
IC50 [1]: 0.27 µM

Compound: O=C(O)c1cc(-c2cn(Cc3ccc(F)cc3)cc2-c2ccc(OCc3ccccc3)cc2)n[nH]1
IC50 [1]: 3.21 µM

Compound: CCOC(=O)c1cc(C)n[nH]1
IC50 [1]: > 100 µM

Compound: CCOC(=O)c1cc(-c2cn(Cc3cccc4ccccc34)cc2-c2ccc(OCC(=O)Nc3ccccc3)cc2)n[nH]1
IC50 [1]: 7.9 µM

Compound: CCOC(=O)c1cc(-c2cn(Cc3cccc4ccccc34)cc2-c2ccccc2)n[nH]1
IC50 [1]: 9.4 µM

Compound: CCOC(=O)c1cc(-c2cn(Cc3cccc4ccccc34)cc2-c2ccc(OCc3cccc4ccccc34)cc2)n[nH]1
IC50 [1]: 4.15 µM

Compound: O=C(O)c1cc(-c2cn(Cc3cccc4ccccc34)cc2-c2ccccc2)n[nH]1
IC50 [1]: 25.3 µM

Stability [2]: Unstable
Drug metabolism [3]: Metabolite_Detected
Compound: CCOC(=O)/C(O)=C/C(=O)c1cn(Cc2ccc(F)cc2)cc1-c1ccccc1

Compound: O=C(O)c1cc(-c2cn(Cc3cccc4ccccc34)cc2-c2ccc(OCCCCc3ccccc3)cc2)n[nH]1
IC50 [1]: 2.38 µM

Compound: CCOC(=O)c1cc(-c2cc[nH]c2)n[nH]1
IC50 [1]: > 100 µM

Compound: O=C(O)c1cc(-c2ccn(Cc3ccc(F)cc3)c2)n[nH]1
IC50 [1]: > 100 µM

Compound: CCOC(=O)c1cc(-c2ccn(Cc3ccc(F)cc3)c2)n[nH]1
IC50 [1]: > 100 µM

Compound: O=C(O)c1cc(-c2cn(Cc3ccc(F)cc3)cc2-c2ccccc2)n[nH]1
IC50 [1]: 75 µM
Stability [2]: Stable

Compound: O=C(COc1ccc(-c2cn(Cc3ccc(F)cc3)cc2-c2cc(C(=O)O)[nH]n2)cc1)Nc1ccc(C(=O)O)cc1
IC50 [1]: 70 µM

Compound: Cn1cc(-c2ccccc2)c(-c2cc(C(=O)O)[nH]n2)c1
IC50 [1]: > 100 µM

Compound: CCOC(=O)c1cc(-c2cn(Cc3ccc(F)cc3)cc2-c2ccc(OCc3ccccc3)cc2)n[nH]1
inhibition [10]: inactive
inhibition [4]: inactive
Ratio IC50 (HIV-1 M:B [5]): > 5
EC50 [12]: 4 to 41 µM
Ratio IC50 [13]: > 18.5
Ratio IC50 (HIV-1 M:B [6]): > 5
Ratio IC50 (HIV-1 M:B [7]): > 5
IC50 [1]: 5.4 µM
inhibition [14]: inactive
Ratio IC50 (HIV-1 M:B [8]): > 5

Compound: O=C(O)c1cc(-c2ccccc2)n[nH]1
IC50 [1]: > 100 µM

Compound: O=C(O)c1cc(-c2cn(Cc3ccc(F)cc3)cc2-c2ccc3ccccc3c2)n[nH]1
IC50 [1]: 13.7 µM

Compound: O=C(O)c1cc(-c2cn(Cc3ccc(F)cc3)cc2-c2ccc(OCCCCCc3ccccc3)cc2)n[nH]1
IC50 [1]: 9.2 µM

Compound: CCOC(=O)c1cc(-c2cn(Cc3ccc(F)cc3)cc2-c2ccccc2)n[nH]1
inhibition [10]: Active
inhibition [4]: inactive
Ratio IC50 (HIV-1 M:B [5]): > 5
EC50 [12]: 4 µM
Ratio IC50 [13]: 5
Ratio IC50 (HIV-1 M:B [6]): > 5
Ratio IC50 (HIV-1 M:B [7]): > 5
IC50 [1]: 14.3 µM
inhibition [14]: inactive
Ratio IC50 (HIV-1 M:B [8]): > 5
IC50 [16]: 75 µM
Stability [2]: Stable

Compound: CCOC(=O)c1cc(-c2cn(Cc3ccc(F)cc3)cc2-c2ccc(OCc3cccc4ccccc34)cc2)n[nH]1
IC50 [1]: 5.5 µM

Compound: O=C(COc1ccc(-c2cn(Cc3ccc(F)cc3)cc2-c2cc(C(=O)O)[nH]n2)cc1)Nc1ccccc1
IC50 [1]: 23 µM

Compound: CCOC(=O)c1cc(-c2cn(C)cc2-c2ccccc2)n[nH]1
IC50 [1]: > 100 µM
